In brackets after ≈: the same amount, converted by molar mass.
Experiments:
Assay in all cases: In vitro antibacterial evaluation: minimum inhibitory concentration (MIC), broth dilution method
Type in all cases: cell-based
Escherichia coli = Escherichia coli (GC 4560); 18 hours at 35° C.
Outline: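 Broth dilution per NCCLS M7-A2 in Muller-Hinton II […], inoculum 5×10^5 CFU/mL, antibiotic tested over 64-0.06 μg/mL. MIC is taken as the lowest concentration that inhibits growth. Panel includes recent clinical isolates resistant to methicillin, penicillin and/or vancomycin.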

Streptococcus sp. = conditions: 18 hours at 35° C.
Outline: (§1)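 Inoculum: 5×10^5 CFU/mL. Range: 64-0.06 μg/mL. Medium: Muller-Hinton II […]; NCCLS M7-A2 broth dilution. Endpoint: lowest concentration inhibiting growth. Strains include methicillin-, penicillin- and/or vancomycin-resistant clinical isolates.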

Staphylococcus sp. = system: Staphylococcus sp.
Outline: as §1

Enterococcus sp. = conditions: 18 hours at 35° C.
Outline: as §1

[1] = broth dilution, inoculum 5×10^5 CFU/mL

MIC Escherichia coli (GC 4560) (Escherichia coli): 4 µg/mL (≈ 2.67 µM)
MIC Streptococcus agalactiae (GC 4564) (Streptococcus sp.; Streptococcus agalactiae (GC 4564)): 0.5 µg/mL (≈ 0.334 µM)
MIC Streptococcus pneumoniae (ATCC 6301) (Streptococcus sp.; Streptococcus pneumoniae (ATCC 6301)): 0.5 µg/mL (≈ 0.334 µM)
MIC Streptococcus pneumoniae (GC 1894) (Streptococcus sp.; Streptococcus pneumoniae (GC 1894)): <0.12 µg/mL
MIC Streptococcus pneumoniae (GC 4565) (Streptococcus sp.; Streptococcus pneumoniae (GC 4565)): 1 µg/mL (≈ 0.669 µM)
MIC Streptococcus pyogenes (GC 4563) (Streptococcus sp.; Streptococcus pyogenes (GC 4563)): 0.5 µg/mL (≈ 0.334 µM)
MIC Streptococcus agalactiae (GC 4564) (Streptococcus sp.; [1]): 0.5 µg/mL (≈ 0.334 µM)
MIC Streptococcus pneumoniae (ATCC 6301) (Streptococcus sp.; [1]): 0.5 µg/mL (≈ 0.334 µM)
MIC Streptococcus pneumoniae (GC 1894) (Streptococcus sp.; [1]): <0.12 µg/mL
MIC Streptococcus pneumoniae (GC 4565) (Streptococcus sp.; [1]): 1 µg/mL (≈ 0.669 µM)
MIC Streptococcus pyogenes (GC 4563) (Streptococcus sp.; [1]): 0.5 µg/mL (≈ 0.334 µM)
MIC Staphylococcus aureus (ATCC 29213) (Staphylococcus sp.; strain ATCC 29213): 4 µg/mL (≈ 2.67 µM)
MIC Staphylococcus aureus (GC 1131) (Staphylococcus sp.; strain GC 1131): 8 µg/mL (≈ 5.35 µM)
MIC Staphylococcus aureus (GC 3051) (Staphylococcus sp.; strain GC 3051): 4 µg/mL (≈ 2.67 µM)
MIC Staphylococcus aureus (GC 3053) (Staphylococcus sp.; strain GC 3053): 8 µg/mL (≈ 5.35 µM)
MIC Staphylococcus aureus (GC 4541) (Staphylococcus sp.; strain GC 4541): 4 µg/mL (≈ 2.67 µM)
MIC Staphylococcus aureus (GC 4542) (Staphylococcus sp.; strain GC 4542): 8 µg/mL (≈ 5.35 µM)
MIC Staphylococcus aureus-SMITH (GC 4543) (Staphylococcus sp.; strain GC 4543): 4 µg/mL (≈ 2.67 µM)
MIC Staphylococcus aureus (GC 4544) (Staphylococcus sp.; strain GC 4544): 8 µg/mL (≈ 5.35 µM)
MIC Staphylococcus aureus (GC 4545) (Staphylococcus sp.; strain GC 4545): 4 µg/mL (≈ 2.67 µM)
MIC Coagulase Negative Staphylococcus (GC 4547) (Staphylococcus sp.; strain GC 4547): 4 µg/mL (≈ 2.67 µM)
MIC Coagulase Negative Staphylococcus (GC 4548) (Staphylococcus sp.; strain GC 4548): 2 µg/mL (≈ 1.34 µM)
MIC Coagulase Negative Staphylococcus (GC 4549) (Staphylococcus sp.; strain GC 4549): 2 µg/mL (≈ 1.34 µM)
MIC Coagulase Negative Staphylococcus (GC 4551) (Staphylococcus sp.; strain GC 4551): 4 µg/mL (≈ 2.67 µM)
MIC Enterococcus avium (GC 4558) (Enterococcus sp.; Enterococcus avium (GC 4558)): 4 µg/mL (≈ 2.67 µM)
MIC Enterococcus faecalis (ATCC 29212) (Enterococcus sp.; Enterococcus faecalis (ATCC 29212)): 8 µg/mL (≈ 5.35 µM)
MIC Enterococcus faecalis (GC 2242) (Enterococcus sp.; Enterococcus faecalis (GC 2242)): 8 µg/mL (≈ 5.35 µM)
MIC Enterococcus faecalis (GC 2691) (Enterococcus sp.; Enterococcus faecalis (GC 2691)): 16 µg/mL (≈ 10.7 µM)
MIC Enterococcus faecalis (GC 3059) (Enterococcus sp.; Enterococcus faecalis (GC 3059)): 16 µg/mL (≈ 10.7 µM)
MIC Enterococcus faecalis (GC 4552) (Enterococcus sp.; Enterococcus faecalis (GC 4552)): 8 µg/mL (≈ 5.35 µM)
MIC Enterococcus faecalis (GC 4553) (Enterococcus sp.; Enterococcus faecalis (GC 4553)): 4 µg/mL (≈ 2.67 µM)
MIC Enterococcus faecalis (GC 4554) (Enterococcus sp.; Enterococcus faecalis (GC 4554)): 16 µg/mL (≈ 10.7 µM)
MIC Enterococcus faecalis (GC 6189) (Enterococcus sp.; Enterococcus faecalis (GC 6189)): 16 µg/mL (≈ 10.7 µM)
MIC Enterococcus faecium (GC 2243) (Enterococcus sp.; Enterococcus faecium (GC 2243)): 4 µg/mL (≈ 2.67 µM)
MIC Enterococcus faecium (GC 4556) (Enterococcus sp.; Enterococcus faecium (GC 4556)): 8 µg/mL (≈ 5.35 µM)
MIC Enterococcus faecium (GC 4557) (Enterococcus sp.; Enterococcus faecium (GC 4557)): 1 µg/mL (≈ 0.669 µM)
MIC Enterococcus avium (GC 4558) (Enterococcus sp.; [1]): 4 µg/mL (≈ 2.67 µM)
MIC Enterococcus faecalis (ATCC 29212) (Enterococcus sp.; [1]): 8 µg/mL (≈ 5.35 µM)
MIC Enterococcus faecalis (GC 2242) (Enterococcus sp.; [1]): 8 µg/mL (≈ 5.35 µM)
MIC Enterococcus faecalis (GC 2691) (Enterococcus sp.; [1]): 16 µg/mL (≈ 10.7 µM)
MIC Enterococcus faecalis (GC 3059) (Enterococcus sp.; [1]): 16 µg/mL (≈ 10.7 µM)
MIC Enterococcus faecalis (GC 4552) (Enterococcus sp.; [1]): 8 µg/mL (≈ 5.35 µM)
MIC Enterococcus faecalis (GC 4553) (Enterococcus sp.; [1]): 4 µg/mL (≈ 2.67 µM)
MIC Enterococcus faecalis (GC 4554) (Enterococcus sp.; [1]): 16 µg/mL (≈ 10.7 µM)
MIC Enterococcus faecalis (GC 6189) (Enterococcus sp.; [1]): 16 µg/mL (≈ 10.7 µM)
MIC Enterococcus faecium (GC 2243) (Enterococcus sp.; [1]): 4 µg/mL (≈ 2.67 µM)
MIC Enterococcus faecium (GC 4556) (Enterococcus sp.; [1]): 8 µg/mL (≈ 5.35 µM)
MIC Enterococcus faecium (GC 4557) (Enterococcus sp.; [1]): 1 µg/mL (≈ 0.669 µM)
SMILES: CC(C)=CCN1CC(C(O)C2NC(=O)C(C(O)C3CNC(=N)N3)NC(=O)C(Cc3ccc(OC4OC(CO)C(OC5OC6COC7(OC6C(O)C5O)C5CC6CC(C5)CC7C6)C(O)C4O)cc3)NC(=O)C(C(C)c3ccccc3)NC(=O)CNC(=O)C(CO)NC2=O)N(C2OC(CO)C(O)C(O)C2O)C1=N (stereo not drawn) [Example 225, Cyclo[glycyl-β-methylphenylalanyl-O-[4-O-[4,6-O-(2-adamantylidene)hexopyranosyl]hexopyranosyl]tyrosyl-3-(2-iminoimidazolidin-4-yl)seryl-3,3-hexopyranosyl-2-imino-1-(3-methylbut-2-en-1-iminoimidazolidin-4-yl]serylseryl]]
MIC Staphylococcus haemolyticus (GC 4546) (Staphylococcus sp.; strain GC 4546): 4 µg/mL (≈ 2.67 µM)

Source: US8247211B2, “Glycopeptide antibiotics” (American Cyanamid Company, priority 2001, dated 2012)
